Measurements: patent publication US20120289563A1, “COMBINATIONS OF IMIDAFENACIN AND SALIVARY STIMULANTS FOR THE TREATMENT OF OVERACTIVE BLADDER” (THERAVIDA, INC., priority 2011, published 2012)

Tests used:
[1] = Pilot human study of saliva flow rate (Parafilm chewed for 2 minutes, saliva weighed); type: in vivo; settings: 0.1 mg Uritos; single subject
Description: In this study, the effect of imidafenacin (Uritos®), pilocarpine, the combination of the two, and placebo was measured in separate, yet identical, studies in a single individual.
The following protocol was for a pilot human study to evaluate the extent of saliva flow rate following the administration of 0.1 mg Uritos® tablet and 5 or 10 mg pilocarpine HCl tablet after about 0.5 or 3 hrs from imidafenacin administration. The subject was a healthy, person. The subject performed the following: • 1. Fast the night before. • 2. No coffee or soda 8 hrs prior to taking the first dose. • 3. Record time voiding and measure urine if possible. • 4. Record extent of dryness of the mouth (Very dry, dry, and not dry). • 5. Record any adverse event. • 6. Chew a 1″×1″ piece of Parafilm (American National Can (Neenah, Wis. 54956) Bar code No. 7-466676999) over 2 minutes. • 7. Collect wetted Parafilm and saliva into a tared container (pre-weighed container). • 8. Measure the amount of saliva collected. • 9. Plot Saliva collected per 2 min time intervals against time.
The subject fasted overnight, but had 240 mL of water 1 hr prior to dose. The water continued ad lib until 1 hr pre and 1 hr post dose, other than 120 mL with Uritos® and 120 mL with 5 mg Salagen tablet. For lunch, the subject consumed a light sandwich. No coffee, soda, or caffeinated or alcoholic beverages was consumed. […]

[2] = 5 mg of pilocarpine; cited from earlier work

Time of maximum dry mouth / maximum saliva depression point after administration [1] | Structure (SMILES) | Time of maximum saliva output after administration [2]
about 5 hours | Cc1nccn1CCC(C(N)=O)(c1ccccc1)c1ccccc1 [imidafenacin, 4-(2-methyl-1H-imidazol-1-yl)-2,2-diphenylbutanamide] | 
 | CC[C@@H]1C(=O)OC[C@@H]1Cc1cncn1C [pilocarpine] | about 30 minutes
